The text below walks through data of ChEMBL document CHEMBL1128092, “Potent, orally bioavailable HIV-1 protease inhibitors containing noncoded D-amino acids” (Bioorg Med Chem Lett, 1995).

For experiment [1], the target named is Human immunodeficiency virus type 1 protease (Human immunodeficiency virus 1, UniProt Q72874). In words: Inhibitory activity against HIV-1 protease.
Experiment [2] deals with CCRF-CEM. Put plainly: (§1) Antiviral activity to inhibit viral replication of HIV-1 infected CEM cells. In kind it is functional, cell-based. Conditions: Homo sapiens.
Experiment [3] relates to CCRF-CEM. The experiment is described as §1. In kind it is functional. Conditions: Homo sapiens.

A value given as a limit tells only on which side of the number the result lay.

On to `CC(C)(C)NC(=O)[C@@H]1C[C@@H]2CCCC[C@@H]2CN1C[C@@H](O)[C@H](Cc1ccccc1)NC(=O)[C@@H](CSc1ccc2ccccc2c1)NS(C)(=O)=O`, for which the IC50 stood at 5.1 nM in experiment [1] and 71 nM in experiment [2]. In experiment [3], this molecule displayed an IC95 of 1.9 µM.

Take `CC(=O)N[C@H](CS(=O)(=O)c1ccc2ccccc2c1)C(=O)N[C@@H](Cc1ccccc1)[C@H](O)CN1C[C@H]2CCCC[C@H]2C[C@H]1C(=O)NC(C)(C)C`: the IC50 in experiment [1] was 1.6 nM; in experiment [2], 9.5 nM. In experiment [3], this molecule had an IC95 of 0.022 µM.

Regarding `CC(C)(C)NC(=O)[C@@H]1C[C@@H]2SCC[C@@H]2CN1C[C@@H](O)[C@H](CSc1ccccc1)NC(=O)[C@@H](CS(=O)(=O)c1ccc(F)cc1)NC(=O)C(F)(F)F`, the IC50 stood at 10 nM in experiment [1] and 180 nM in experiment [2]. Besides, the IC95 in experiment [3] turned out to be 0.84 µM.

Turning to `CC(C)(C)NC(=O)[C@@H]1C[C@@H]2CCCC[C@@H]2CN1C[C@@H](O)[C@H](Cc1ccccc1)NC(=O)[C@@H](C[S+]([O-])c1ccc2ccccc2c1)NS(C)(=O)=O` (some centres undefined), the IC50 was 0.4 nM in experiment [1] and 3.8 nM in experiment [2]. For the same molecule, in experiment [3], the 95% effect level (IC95) was put at 0.0082 µM.

Regarding `CC(C)CN(C[C@@H](O)[C@H](Cc1ccccc1)NC(=O)[C@@H](CS(=O)(=O)c1ccc(F)cc1)NS(C)(=O)=O)C(=O)NC(C)(C)C`, the figures for the IC50 in experiment [1] and in experiment [2] were 10 nM and 10000 nM, respectively. Also, the IC95 in experiment [3] came out at 21 µM.

Turning to `CC(C)(C)NC(=O)[C@@H]1C[C@@H]2CCCC[C@@H]2CN1C[C@@H](O)[C@H](Cc1ccccc1)NC(=O)[C@@H](CS(=O)(=O)c1ccc(F)cc1)NS(C)(=O)=O`, the IC50 in experiment [1] is 2 nM; in experiment [2], 17 nM. This molecule had an IC95 in experiment [3] of 0.054 µM.

Turning to `CC(C)(C)NC(=O)[C@@H]1C[C@@H]2SCC[C@@H]2CN1C[C@@H](O)[C@H](Cc1ccccc1)NC(=O)[C@@H](CS(=O)(=O)c1ccc(F)cc1)NC(=O)C(F)(F)F`, the values for the IC50 in experiment [1] and in experiment [2] were less than 0.2 nM and 15 nM, respectively. The molecule further displayed an IC95 in experiment [3] of 0.058 µM.

On to `CC(=O)N[C@H](CSCc1ccccc1)C(=O)N[C@@H](Cc1ccccc1)[C@H](O)CN1C[C@H]2CCCC[C@H]2C[C@H]1C(=O)NC(C)(C)C`, for which the half-inhibitory concentration (IC50) in experiment [1] amounted to 6 nM; in experiment [2], 77 nM. In experiment [3], this molecule registered an IC95 of 0.305 µM.

In the case of `CC(C)(C)NC(=O)[C@@H]1C[C@@H]2CCCC[C@@H]2CN1C[C@@H](O)[C@H](Cc1ccccc1)NC(=O)[C@@H](CSc1ccc(F)cc1)NS(C)(=O)=O`, the IC50 came to 24 nM in experiment [1] and 150 nM in experiment [2]. This molecule yielded an IC95 in experiment [3] of 0.55 µM.

For `CC(C)(C)NC(=O)[C@@H]1C[C@@H]2SCC[C@@H]2CN1C[C@@H](O)[C@H](Cc1ccccc1)NC(=O)[C@@H](CS(=O)(=O)c1cccc2cccnc12)NC(=O)C(F)(F)F`, the IC50 turned out to be 0.21 nM in experiment [1] and 18 nM in experiment [2]. For the same molecule, in experiment [3], the IC95 was 0.062 µM.

Consider `CC(C)(C)NC(=O)[C@@H]1C[C@@H]2SCC[C@@H]2CN1C[C@@H](O)[C@H](Cc1ccccc1)NC(=O)[C@@H](CS(=O)(=O)c1cccc2cccnc12)NS(C)(=O)=O`, for which the IC50 was 0.71 nM in experiment [1] and 72 nM in experiment [2]. In experiment [3], the IC95 was 0.25 µM.

For the molecule `CC(=O)N[C@H](CS(=O)(=O)c1ccc2ccccc2c1)C(=O)N[C@@H](Cc1ccccc1)[C@H](O)CN1C[C@H]2CCS[C@H]2C[C@H]1C(=O)NC(C)(C)C`, the IC50 in experiment [1] is 0.5 nM; in experiment [2], 1.9 nM. In experiment [3], this molecule had an IC95 of 0.023 µM.

Take `CC(C)CN(C[C@@H](O)[C@H](Cc1ccccc1)NC(=O)[C@@H](C[S+]([O-])c1ccc2ccccc2c1)NS(C)(=O)=O)C(=O)NC(C)(C)C` (some centres undefined): the IC50 came to 2.1 nM in experiment [1] and 14 nM in experiment [2]. In experiment [3], this molecule showed an IC95 of 0.062 µM.

As to `CC(=O)N[C@H](CS(=O)(=O)c1ccc(F)cc1)C(=O)N[C@@H](CSc1ccccc1)[C@H](O)CN1C[C@H]2CCS[C@H]2C[C@H]1C(=O)NC(C)(C)C`, the IC50 was found to be 1.8 nM in experiment [1] and 57 nM in experiment [2]. Also, in experiment [3], the IC95 was determined as 0.18 µM.

Take `CC(=O)N[C@H](CS(=O)(=O)c1cccc2cccnc12)C(=O)N[C@@H](Cc1ccccc1)[C@H](O)CN1C[C@H]2CCS[C@H]2C[C@H]1C(=O)NC(C)(C)C`: the IC50 in experiment [1] came out at 0.42 nM; in experiment [2] it was 140 nM. The same molecule came in with an IC95 in experiment [3] of 0.3 µM.

Turning to `CC(C)(C)NC(=O)[C@@H]1C[C@@H]2SCC[C@@H]2CN1C[C@@H](O)[C@H](Cc1ccccc1)NC(=O)[C@@H](CS(=O)(=O)c1ccc2ccccc2c1)NS(C)(=O)=O`, the IC50 is less than 0.2 nM in experiment [1] and 27 nM in experiment [2]. The same molecule came in with an IC95 in experiment [3] of 0.085 µM.

`CC(C)(C)NC(=O)[C@@H]1C[C@@H]2CCCC[C@@H]2CN1C[C@@H](O)[C@H](Cc1ccccc1)NC(=O)[C@@H](C[S+]([O-])c1ccc(F)cc1)NS(C)(=O)=O` (some centres undefined): the IC50 was 0.6 nM in experiment [1] and 9.1 nM in experiment [2]. The same molecule registered an IC95 in experiment [3] of 0.031 µM.

Take `CC(C)CN(C[C@@H](O)[C@H](Cc1ccccc1)NC(=O)[C@@H](CSc1ccc(F)cc1)NS(C)(=O)=O)C(=O)NC(C)(C)C`: the values for the IC50 in experiment [1] and in experiment [2] were 85 nM and 17000 nM, respectively. The molecule further yielded an IC95 in experiment [3] of 36 µM.

Take `CC(C)(C)NC(=O)[C@@H]1C[C@@H]2SCC[C@@H]2CN1C[C@@H](O)[C@H](Cc1ccccc1)NC(=O)[C@@H](CS(=O)(=O)c1ccc2ccccc2c1)NC(=O)C(F)(F)F`: the IC50 in experiment [1] was less than 0.2 nM; in experiment [2], 4.6 nM. This molecule also showed an IC95 in experiment [3] of 0.032 µM.

In the case of `CC(C)(C)NC(=O)[C@@H]1C[C@@H]2SCC[C@@H]2CN1C[C@@H](O)[C@H](Cc1ccccc1)NC(=O)[C@@H](CS(=O)(=O)c1ccc(F)cc1)NS(C)(=O)=O`, the IC50 in experiment [1] amounted to 0.22 nM; in experiment [2] it was 43 nM. Besides, the IC95 in experiment [3] came out at 0.19 µM.

With `CC(=O)N[C@H](CS(=O)(=O)c1cccc2cccnc12)C(=O)N[C@@H](Cc1ccccc1)[C@H](O)CN1C[C@H]2CCCC[C@H]2C[C@H]1C(=O)NC(C)(C)C`, the IC50 in experiment [1] was 1.7 nM; in experiment [2] it was 1.9 nM. The same molecule registered an IC95 in experiment [3] of 0.064 µM.

Regarding `CC(C)CN(C[C@@H](O)[C@H](Cc1ccccc1)NC(=O)[C@@H](CSc1ccc2ccccc2c1)NS(C)(=O)=O)C(=O)NC(C)(C)C`, the IC50 was found to be 50 nM in experiment [1] and 4700 nM in experiment [2]. The IC95 in experiment [3] turned out to be 9.9 µM.

`CC(C)(C)NC(=O)[C@@H]1C[C@@H]2CCCC[C@@H]2CN1C[C@@H](O)[C@H](Cc1ccccc1)NC(=O)[C@@H](CS(=O)(=O)c1ccc2ccccc2c1)NS(C)(=O)=O`: the results for the IC50 in experiment [1] and in experiment [2] were 0.5 nM and 3.2 nM, respectively. Moreover, in experiment [3], the IC95 worked out at 0.01 µM.

Consider `CC(C)(C)NC(=O)[C@@H]1C[C@@H]2SCC[C@@H]2CN1C[C@@H](O)[C@H](CSc1ccccc1)NC(=O)[C@@H](CS(=O)(=O)c1ccc2ccccc2c1)NC(=O)C(F)(F)F`, for which the IC50 in experiment [1] worked out at 1.8 nM; in experiment [2] it was 57 nM. The molecule also showed a concentration for an effect of 95% (IC95) in experiment [3] of 0.24 µM.

Molecule `CC(=O)N[C@H](CS(=O)(=O)c1ccc(F)cc1)C(=O)N[C@@H](Cc1ccccc1)[C@H](O)CN1C[C@H]2CCS[C@H]2C[C@H]1C(=O)NC(C)(C)C` showed an IC50 in experiment [2] of 70 nM. Further, the 95% effect level in experiment [3] (IC95) was put at 0.73 µM.
